Like-named read-outs stand apart in the source and are kept apart here. Values belong to the molecule of their own block, whether it stands above or below them. Square brackets hold non-standard residues; d marks the D form. Peptide text beside a SMILES is read from it. * marks the point of attachment. pY = N[C@@H](Cc1ccc(OP(=O)(O)O)cc1)C(=O)O; aIle = CC[C@@H](C)[C@H](N)C(=O)O; Aoc(2) = CCCCCC[C@H](N)C(=O)O; Tle = CC(C)(C)[C@H](N)C(=O)O; Orn = NCCC[C@H](N)C(=O)O; Aze = O=C(O)[C@@H]1CCN1; Nva = CCC[C@H](N)C(=O)O; Abu = CC[C@H](N)C(=O)O; Bn = c1ccc(C*)cc1
Assays:
[1] = target: purified porcine DPIV (Sus scrofa, UniProt P22411); experiment: Determination of IC50 values (DPIV, Gly-Pro-pNA); format: biochemical; conditions: Gly-Pro-pNA 0.4 mM, HEPES pH7.6, 30° C.
purified porcine DPIV, sequence (P22411 whole entry): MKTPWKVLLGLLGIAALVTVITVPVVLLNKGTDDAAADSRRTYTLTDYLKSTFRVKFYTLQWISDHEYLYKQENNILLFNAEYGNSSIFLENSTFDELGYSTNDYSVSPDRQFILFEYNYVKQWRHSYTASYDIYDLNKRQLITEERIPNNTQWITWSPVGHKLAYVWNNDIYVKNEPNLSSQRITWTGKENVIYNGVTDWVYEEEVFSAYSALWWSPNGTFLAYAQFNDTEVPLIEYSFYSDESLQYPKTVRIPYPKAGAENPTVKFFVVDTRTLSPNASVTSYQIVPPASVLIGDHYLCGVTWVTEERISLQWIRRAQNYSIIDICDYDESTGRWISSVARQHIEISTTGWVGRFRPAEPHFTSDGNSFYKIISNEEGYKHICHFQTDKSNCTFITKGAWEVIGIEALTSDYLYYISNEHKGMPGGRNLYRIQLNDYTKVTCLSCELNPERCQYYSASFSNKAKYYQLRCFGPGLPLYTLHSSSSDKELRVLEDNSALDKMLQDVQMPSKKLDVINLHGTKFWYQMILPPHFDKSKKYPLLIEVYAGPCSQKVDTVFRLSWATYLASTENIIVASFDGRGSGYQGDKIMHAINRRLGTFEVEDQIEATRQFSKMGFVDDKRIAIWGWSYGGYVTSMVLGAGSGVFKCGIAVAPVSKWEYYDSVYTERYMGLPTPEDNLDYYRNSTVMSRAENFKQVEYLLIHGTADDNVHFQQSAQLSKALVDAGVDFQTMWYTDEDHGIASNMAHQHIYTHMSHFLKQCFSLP
Protocol: 100 μl inhibitor stock solution were mixed with 100 μl buffer (HEPES pH7.6) and 50 μl substrate (Gly-Pro-pNA, final concentration 0.4 mM) and preincubated at 30° C. Reaction was started by addition of 20 μl purified porcine DPIV. Formation of the product pNA was measured at 405 nm over 10 min using the HTS 7000Plus plate reader (Perkin Elmer) and slopes were calculated. The final inhibitor concentrations ranged between 1 mM and 30 nM. For calculation of IC50 GraFit 4.0.13 (Erithacus Software) was used.

[2] = target: T1, dipeptidyl peptidase IV from porcine kidney (Sus scrofa, UniProt P22411); experiment: Ki determination of DPIV inhibition; format: biochemical; conditions: substrate glycylprolyl-4-nitroaniline, HEPES pH7.6, 30° C.
T1 construct: dipeptidyl peptidase IV from porcine kidney; from tissue; host or cells: porcine kidney
T1 sequence (P22411 whole entry): as above

[3] = test system: F344 rats; experiment: Chronic intragastric infusion via osmotic minipumps over two weeks - blood pressure; format: in vivo, rat
Protocol: Reduced expression of the ectopeptidase DPIV and lack of DPIV-like activity in mutant F344 rats lacking DPIV enzymic activity and expression results in a lowered blood pressure. Mutant F344 substrains lacking DPIV enzymic activity and wild-type-like F344 were tested.

[4] = target: T2, PepT1 (Oryctolagus cuniculus, UniProt P36836); experiment: Transport characteristics at PepT1-expressing oocytes of X. leavis, two-electrode voltage clamp; format: cell-based
T2 sequence (P36836 1-707): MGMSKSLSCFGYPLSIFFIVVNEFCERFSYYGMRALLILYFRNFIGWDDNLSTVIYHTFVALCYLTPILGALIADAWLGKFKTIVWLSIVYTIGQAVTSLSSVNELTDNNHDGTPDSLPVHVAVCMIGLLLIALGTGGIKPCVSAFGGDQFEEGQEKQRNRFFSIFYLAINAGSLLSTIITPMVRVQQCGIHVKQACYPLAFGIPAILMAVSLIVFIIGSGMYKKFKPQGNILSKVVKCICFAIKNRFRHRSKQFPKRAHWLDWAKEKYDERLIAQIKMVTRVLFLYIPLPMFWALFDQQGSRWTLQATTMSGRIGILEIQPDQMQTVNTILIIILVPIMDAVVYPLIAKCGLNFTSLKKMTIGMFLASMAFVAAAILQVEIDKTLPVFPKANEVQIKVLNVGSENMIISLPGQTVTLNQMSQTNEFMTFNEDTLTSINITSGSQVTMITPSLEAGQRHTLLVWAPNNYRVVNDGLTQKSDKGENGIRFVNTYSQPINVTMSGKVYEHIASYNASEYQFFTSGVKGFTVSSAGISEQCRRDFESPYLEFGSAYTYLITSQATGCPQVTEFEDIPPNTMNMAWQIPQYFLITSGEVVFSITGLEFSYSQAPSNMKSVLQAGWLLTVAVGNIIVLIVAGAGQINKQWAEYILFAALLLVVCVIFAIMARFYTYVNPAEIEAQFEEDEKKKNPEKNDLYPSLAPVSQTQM
From the text: (§1) Side chain-modified glutamyl thiazolidines having a structure H-Glu(X)-Thia were synthesised, with polyethylene glycol or glycine oligomers of various chain lengths being used as X (see Method A of example for description of synthesis). The binding characteristics of those derivatives and their transportability by the peptide transporter PepT1 were investigated.

[5] = target: T2, PepT1; experiment: Inhibition of binding of 3H-D-Phe-Ala to PepT1-expressing P. pastoris cells; conditions: read-out: EC50: concentration inhibiting the binding of 3H-D-Phe-Ala to PepT1-expressing P. pastoris cells by 50%
From the text: as §1

[6] = target: T3, plasma DPIV activity (Rattus norvegicus, UniProt P14740); experiment: DPIV inhibiting activity after intravasal and oral administration to Wistar rats; format: in vivo; conditions: for in vivo DPIV-inhibition at tmax, p.o. / in vivo DPIV-inhibition at tmax, i.v.: dose 100 mg/kg; for inhibition at 100 mg/kg: rat
T3 construct: from tissue; host or cells: plasma of Wistar rats
T3 sequence (P14740 38-767 limits assumed): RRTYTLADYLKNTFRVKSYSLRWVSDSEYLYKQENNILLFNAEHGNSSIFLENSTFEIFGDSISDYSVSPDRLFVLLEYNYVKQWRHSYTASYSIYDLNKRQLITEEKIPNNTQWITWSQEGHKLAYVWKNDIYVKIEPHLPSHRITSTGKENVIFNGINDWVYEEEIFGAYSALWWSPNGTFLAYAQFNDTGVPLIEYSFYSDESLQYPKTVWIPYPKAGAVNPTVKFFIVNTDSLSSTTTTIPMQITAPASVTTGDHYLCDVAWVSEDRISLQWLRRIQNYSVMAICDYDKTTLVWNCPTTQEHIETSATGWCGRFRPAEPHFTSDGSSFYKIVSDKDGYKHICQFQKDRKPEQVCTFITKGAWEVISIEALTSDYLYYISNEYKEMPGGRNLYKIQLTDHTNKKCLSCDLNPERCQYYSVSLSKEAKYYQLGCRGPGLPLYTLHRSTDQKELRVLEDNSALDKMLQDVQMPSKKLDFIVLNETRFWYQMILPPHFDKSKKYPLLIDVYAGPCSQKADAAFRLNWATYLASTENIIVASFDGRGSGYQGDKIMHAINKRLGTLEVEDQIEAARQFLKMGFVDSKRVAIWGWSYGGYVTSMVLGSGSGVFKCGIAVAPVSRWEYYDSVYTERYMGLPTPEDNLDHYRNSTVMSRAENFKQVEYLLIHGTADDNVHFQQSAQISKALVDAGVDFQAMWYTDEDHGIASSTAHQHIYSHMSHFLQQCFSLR
Protocol: Male Wistar rats (Shoe: Wist(Sho)) with a body weight ranging between 250 and 350 g were purchased from Tierzucht Schönwalde (Schönwalde, Germany).
Animals were single-caged under conventional conditions with controlled temperature (22±2° C.) on a 12/12 hours light/dark cycle (light on at 06:00 AM). Standard pelleted chow (ssniff® Soest, Germany) and tap water acidified with HCl were allowed ad libitum.
After ≧one week of adaptation at the housing conditions, catheters were implanted into the carotid artery of Wistar rats under general anaesthesia (i.p. injection of 0.25 ml/kg b.w. Rompun® [2%], BayerVital, Germany and 0.5 ml/kg b.w. Ketamin 10, Atarost GmbH & Co., Twistringen, Germany). The animals were allowed to recover for one week. The catheters were flushed with heparin-saline (100 IU/ml) three times per week. In case of catheter dysfunction, a second catheter was inserted into the contra-lateral carotid artery of the respective rat. After one week of recovery from surgery, this animal was reintegrated into the study. In case of dysfunction of the second catheter, the animal was withdrawn from the study. A new animal was recruited and the experiments were continued in the planned sequence, beginning at least 7 days after catheter implantation.
After overnight fasting, 100 μl samples of heparinised arterial blood were collected at −30, −5, and 0 min. […] In the case of oral administration, an additional volume of 1 ml saline was injected into the arterial catheter. In the case of infra-arterial administration, the catheter was immediately flushed with 30 μl saline and an additional 1 ml of saline was given orally via the feeding tube.
All blood samples were collected into ice cooled Eppendorf tubes (Eppendorf-Netheler-Hinz, Hamburg, Germany) filled with 10 μl 1M sodium citrate buffer (pH 3.0) for plasma DPIV activity measurement. Eppendorf tubes were centrifuged immediately (12000 rpm for 2 min, Hettich Zentrifuge EBA 12, Tuttlingen; Germany): The plasma fractions were stored on ice until analysis or were frozen at −20° C. until analysis. All plasma samples were labelled with the following data:
The assay mixture for determination of plasma DPIV activity consisted of 80 μl reagent and 20 μl plasma sample. […] The DPIV activity was expressed in mU/ml.
All parameters were analysed in a descriptive manner including mean and SD.

[7] = intra-vasal (intra-arterial) route

IC50 [1]: 0.0179 µM
Ki [2]: 0.000536 µM
Molecule: Val-Pro-benzoyl methyl ketone

Ki [2]: 5.22 µM
Molecule: CC[C@@H](C)[C@H](NC(=O)[C@@H]1CCCN1C(=O)[C@@H](N)[C@@H](C)CC)C(=O)O [Ile-Pro-allo-Ile]

Imax, inward currents generated by the transport [4]: 35 ± 13 nA
Molecule: N[C@@H](CCC(=O)O)C(=O)N1CCSC1 [H-Glu-thiazolidine]

Ki [2]: 35 µM
Molecule: NC(Cc1c[nH]cn1)C(=O)N1CCCC1 (stereo not drawn) [H-His-pyrrolidine]

IC50 [1]: 49 µM
Ki [2]: 13.1 µM
Molecule: CC(C)C(N)C(=O)C1CCCC1 (stereo not drawn) [Val-cyclopentyl ketone]

IC50 [1]: 34.3 µM
Molecule: CC[C@H](N)C(=O)N1CCC[C@H]1C(=O)N[C@H](C(=O)O)[C@@H](C)CC [Abu-Pro-Ile] (H-[Abu]-Pro-Ile-OH; N-terminus and C-terminus assumed)

IC50 [1]: 24.9 µM
Ki [2]: 6.17 µM
Molecule: CCC[C@H](N)C(=O)N1CCC[C@H]1C(=O)N[C@H](C(=O)O)[C@@H](C)CC [Nva-Pro-Ile] (H-[Nva]-Pro-Ile-OH; N-terminus and C-terminus assumed)

IC50 [1]: 293 µM
Ki [2]: 56.8 µM
Molecule: CCC(C)C(N)C(=O)C1CCCCC1 (stereo not drawn) [Ile-cyclohexyl ketone]

IC50 [1]: 112 µM
Molecule: CC(C)[C@@H](NC(=O)[C@@H]1CCCN1C(=O)[C@@H](N)C(C)(C)C)C(=O)O [t-butyl-Gly-Pro-D-Val] (H-[Tle]-Pro-[dV]-OH; N-terminus and C-terminus assumed)

Ki [2]: 12.6 µM
Molecule: CCCCCC[C@H](N)C(=O)N1CCC[C@H]1C(=O)N[C@H](C(=O)O)[C@@H](C)CC [AOA-Pro-Ile, 2-Amino octanoic acid-Pro-Ile] (H-[Aoc(2)]-Pro-Ile-OH)

IC50 [1]: 67.8 µM
Ki [2]: 21.6 µM
Molecule: CC[C@H](C)[C@H](NC(=O)[C@@H]1CCCN1C(=O)[C@@H](N)COCc1ccccc1)C(=O)O [Ser(Bzl)-Pro-Ile] (H-Ser(Bn)-Pro-Ile-OH; N-terminus and C-terminus assumed)

Ki [2]: 9.54 µM
Molecule: CC[C@@H](C)[C@H](NC(=O)[C@@H]1CCCN1C(=O)[C@@H](N)C(C)C)C(=O)O [Val-Pro-allo-Ile]

IC50 [1]: 82.3 µM
Ki [2]: 18.9 µM
Molecule: CC[C@H](C)[C@H](N)C(=O)N1CCC[C@H]1C(=O)N[C@H](C(=O)O)C(C)(C)C [Ile-Pro-t-butyl-Gly] (H-Ile-Pro-[Tle]-OH; N-terminus and C-terminus assumed)

IC50 [1]: 1000 µM
Molecule: Val-cyclohexyl ketone

Ki [2]: 14 µM
Molecule: NC(CC(=O)O)C(=O)N1CCCC1 (stereo not drawn) [H-Asp-pyrrolidine]

IC50 [1]: 0.579 µM
Ki [2]: 0.0476 µM
Molecule: CC(=O)C1CCCN1C(=O)C(N)C(C)C (stereo not drawn) [Val-Pro-methyl ketone]

IC50 [1]: 72.8 µM
Molecule: CC[C@H](C)[C@H](NC(=O)[C@@H]1CCCN1C(=O)[C@@H]1CCN1)C(=O)O [Aze-Pro-Ile] (H-[Aze]-Pro-Ile-OH; N-terminus and C-terminus assumed)

IC50 [1]: 273 µM
Ki [2]: 273 µM
Molecule: CC(C)(C)C(N)C(=O)C1CCCCC1 (stereo not drawn) [t-butyl-Gly-cyclohexyl ketone]

The next lines start with the molecule.

Molecule: CC[C@H](C)[C@H](N)C(=O)N1CCCC1C#N.O=C(O)C(F)(F)F (stereo partly drawn) [isoleucyl cyano pyrrolidine TFA]
blood pressure [3]: dose-dependently reduced

Molecule: CC[C@H](C)[C@H](NC(=O)[C@@H]1CCCN1C(=O)[C@@H](N)CCCN)C(=O)O [Orn-Pro-Ile] (H-[Orn]-Pro-Ile-OH; N-terminus and C-terminus assumed)
IC50 [1]: 216 µM

Molecule: H-Glu(PEG)-Thia
Ki [2]: 3.11 µM
EC50 [5]: > 10000 µM

Molecule: CCC(C)C(N)C(=O)N1CC1 (stereo not drawn) [H-Ile-azididine]
Ki [2]: 3.1 µM

Molecule: CC[C@@H](C)[C@H](NC(=O)[C@@H]1CCCN1C(=O)[C@@H](N)Cc1ccc(O)cc1)C(=O)O [Tyr-Pro-allo-Ile] (H-Tyr-Pro-[aIle]-OH; N-terminus and C-terminus assumed)
IC50 [1]: 64.1 µM
Ki [2]: 18.2 µM

Molecule: CC[C@H](C)[C@H](NC(=O)[C@@H]1CCCN1C(=O)[C@@H](N)Cc1ccc(OP(=O)(O)O)cc1)C(=O)O [Tyr(P)-Pro-Ile] (H-[pY]-Pro-Ile-OH; N-terminus and C-terminus assumed)
in vivo DPIV-inhibition at tmax, p.o. ([6]; oral): no inhibition

Molecule: CC(C)[C@H](NC(=O)[C@@H]1CCCN1C(=O)[C@@H](N)C(C)(C)C)C(=O)O [t-butyl-Gly-Pro-Val] (H-[Tle]-Pro-Val-OH; N-terminus and C-terminus assumed)
Ki [2]: 3.08 µM

Molecule: N[C@@H](CCC(=O)NO)C(=O)N1CCSC1 [H-Glu(NHOH)-thiazolidine]
Imax, inward currents generated by the transport [4]: 42 ± 11 nA
Ki [2]: 1.7 µM
EC50 [5]: 3180 µM

Molecule: Val-Pro-acyloxy methyl ketone
IC50 [1]: 0.0102 µM
Ki [2]: 0.00105 µM

Molecule: Br.CC(C)[C@H](NC(=O)[C@H](C)N)C(=O)N1CCC[C@H]1C(=O)COC(=O)c1ccccc1 [Ala-Val-Pro-benzoyl-methyl ketone, H-Ala-Val-Pro-CH2O—C(O)Ph*HBr]
in vivo DPIV-inhibition at tmax, i.v. [6, 7]: 97%
in vivo DPIV-inhibition at tmax, p.o. ([6]; oral): 76%

Molecule: CCC(C)C(N)C(=O)C1CCCC1 (stereo not drawn) [Ile-cyclopentyl ketone, 1-cyclopentyl-3-methyl-1-oxo-2-pentanaminium chloride]
inhibition at 100 mg/kg ([6]; iv, intra-vasal (intra-arterial) route, read-out: in vivo DPIV-inhibition at tmax, i.v.): 34%
inhibition at 100 mg/kg ([6]; oral, read-out: in vivo DPIV-inhibition at tmax, p.o.): 15%

Molecule: Br.CC(=O)OCC(=O)[C@@H]1CCCN1C(=O)[C@@H](NC(=O)[C@H](C)N)C(C)C [Ala-Val-Pro-acyloxy methyl ketone, H-Ala-Val-Pro-CH2O—C(O)CH3*HBr]
in vivo DPIV-inhibition at tmax, i.v. [6, 7]: 89%
in vivo DPIV-inhibition at tmax, p.o. ([6]; oral): 86%

Molecule: Val-Pro-benzothiazol methyl ketone
IC50 [1]: 0.138 µM
Ki [2]: 0.0373 µM
